In patent US11912794B2, “Modulation of structured polypeptide specificity” (BicycleRD Limited, priority 2011, dated 2024):
Each block holds one molecule with its values, some of them ahead of it. Numbered stars: 1 amine (or outer) side, 2 acyl side, 3 side chain; on linkers, the order of the positions; unused ones are H or OH. Bridge positions count the residues as written; N and C are the ends. Square brackets hold non-standard residues; d marks the D form. Peptide text beside a SMILES is read from it. Bip = N[C@@H](Cc1ccc(-c2ccccc2)cc1)C(=O)O; Tpi = O=C(O)[C@@H]1Cc2c([nH]c3ccccc23)CN1; TBMB = c1c(C[*:1])cc(C[*:3])cc1C[*:2]; NMeR = CN[C@@H](CCCNC(=N)N)C(=O)O; hArg = N=C(N)NCCCC[C@H](N)C(=O)O; 3Pal = N[C@@H](Cc1cccnc1)C(=O)O; 4Pal = N[C@@H](Cc1ccncc1)C(=O)O; Pip = O=C(O)[C@@H]1CCCCN1; Aze = O=C(O)[C@@H]1CCN1

Experiments:
human plasma Kallikrein = target: T1, human plasma Kallikrein (Homo sapiens, UniProt P03952); test: Functional enzyme inhibition assay, fluorogenic substrate Z-PheArg-AMC; format: biochemical; details: for loss in potency / reduction in affinity compared to wildtype: vs Ac-06-34-18(TMB)-NH2
T1 construct: purchased Stratech, UK
T1 sequence (P03952 20-638): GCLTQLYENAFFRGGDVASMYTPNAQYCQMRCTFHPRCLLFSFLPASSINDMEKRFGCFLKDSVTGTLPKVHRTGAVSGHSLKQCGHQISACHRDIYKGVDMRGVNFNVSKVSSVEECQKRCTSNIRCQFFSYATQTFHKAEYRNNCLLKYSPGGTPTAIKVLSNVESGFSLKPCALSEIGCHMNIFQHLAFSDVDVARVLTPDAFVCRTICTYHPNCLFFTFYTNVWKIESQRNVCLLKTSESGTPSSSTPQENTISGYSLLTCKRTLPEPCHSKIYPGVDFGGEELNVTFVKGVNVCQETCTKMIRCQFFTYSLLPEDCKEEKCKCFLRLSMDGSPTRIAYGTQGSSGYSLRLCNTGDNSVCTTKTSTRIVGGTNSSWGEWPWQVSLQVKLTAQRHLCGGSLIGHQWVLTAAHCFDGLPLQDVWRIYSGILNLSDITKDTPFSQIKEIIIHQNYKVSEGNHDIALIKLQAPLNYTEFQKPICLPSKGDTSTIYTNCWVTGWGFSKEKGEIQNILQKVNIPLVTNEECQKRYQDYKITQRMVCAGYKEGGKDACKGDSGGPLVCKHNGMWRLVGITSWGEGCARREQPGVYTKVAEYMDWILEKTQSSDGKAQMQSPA
Method: Peptides were dissolved as the TFA-salts in their powder form, and stock solutions were usually prepared in water. All solutions were centrifuged and filtered ([…] syringe filters) prior absorption measurement at 280 nm. […] For peptides containing non-natural amino acids with suspected chromophoric properties (i.e. NorHar, 4PhenylPro, 3PaI, 4PaI, Tic, 4GuanPhe, 4,4-BPAI, 3,3-DPA, 1NAI, 2NAI, 4BenzylPro, Ind) concentrations were determined by weighing the powder and dissolving the peptide in a defined quantity of water.

[1] = Plasma stability profiling method 1 (35% plasma, MALDI-TOF, qualitative); format: in vitro ADME, rat; details: 35% rat plasma, 37 deg C, method 1, comparative estimate
Method: Three methods were employed to assess the stability of bicycles (peptides conjugated to molecular scaffolds) in plasma.
A rapid plasma stability profiling assay was developed that employed mass spectrometric detection (MALDI-TOF, Voyager DE, Applied Biosystems) of the parent mass, until the time when the parent peptide mass was no longer observable. Specifically, 200 uM of peptide was incubated in the presence of 35% rat or human plasma (Sera labs, using citrate as anticoagulant) at 37 deg C., which was supplemented with 1×PBS (derived from a 10×PBS Stock, Sigma). At various time points (i.e. t=0, 3, 24 hrs, henceafter daily up to 10 days), 2 uL of sample was added to 18 uL of 30 mM ammonium bicarbonate in a 1:1 mixture of acetonitrile:H2O. Samples were frozen at −80 deg C. until the time of analysis. For mass spectrometric analysis that determines the approximate detection window of the peptide, the acetonitrile:H2O-diluted sample of a given time point was spotted directly (0.7 uL) onto the MALDI plate. Matrix (alpha-cyanocinnamic acid, Sigma, prepared as a saturated solution in 1:1 acetonitrile:water containing 0.1% trifluoroacetic acid) was layered over the sample (1 uL). At a similar laser intensity setting on the MALDI TOF, the time could then be determined until parent peptide was no longer detectable. It should be noted that this is a qualitative assay serves to detect relative changes in plasma stability.

[2] = Ki (nM) (human kallikrein), Ac-06-34-18(TMB)-NH2 series

SMILES: CC(=O)N[C@H]1CSCc2cc3cc(c2)CSC[C@H](NC(=O)[C@H](Cc2ccc(NC(=N)N)cc2)NC(=O)[C@H](C)NC(=O)[C@@H]2CCCN2C(=O)[C@H](Cc2c[nH]c4ccccc24)NC(=O)[C@H](CO)NC1=O)C(=O)N[C@@H](CC(C)C)C(=O)N[C@@H](Cc1c[nH]cn1)C(=O)N[C@@H](CCC(N)=O)C(=O)N[C@@H](CC(=O)O)C(=O)N[C@@H](CC(C)C)C(=O)N[C@H](C(N)=O)CSC3 [Ac-(06-34-18) 4GuanPhe5]
loss in potency / reduction in affinity compared to wildtype (human plasma Kallikrein): 2 fold

SMILES: CC(C)C[C@@H]1NC(=O)[C@H](CC(=O)O)NC(=O)[C@H](CCC(N)=O)NC(=O)[C@H](Cc2c[nH]cn2)NC(=O)[C@H](C)NC(=O)[C@@H]2CSCc3cc(cc(c3)CSC[C@@H](C(=O)N[C@@H](C)C(N)=O)NC1=O)CSC[C@H](NC(=O)[C@H](C)N)C(=O)N[C@@H](C)C(=O)N[C@@H](Cc1c[nH]c3ccccc13)C(=O)N1CCC[C@H]1C(=O)N[C@@H](C)C(=O)N[C@@H](CCCNC(=N)N)C(=O)N2 [06-34-03 - Ala1,6] (H-ACAWPARCAHQDLCA-NH2; linker 2-8-14 via TBMB; N-terminus and C-terminus assumed)
potency against human plasma Kallikrein compared to parent (human plasma Kallikrein): retained full potency

SMILES: CC(C)C[C@@H]1NC(=O)[C@H](CC(=O)O)NC(=O)[C@H](CCC(N)=O)NC(=O)[C@H](Cc2c[nH]cn2)NC(=O)[C@H]([C@@H](C)O)NC(=O)[C@@H]2CSCc3cc(cc(c3)CSC[C@@H](C(=O)N[C@@H](C)C(N)=O)NC1=O)CSC[C@H](NC(=O)[C@H](C)N)C(=O)N[C@@H](CCCNC(=N)N)C(=O)N[C@@H](Cc1c[nH]c3ccccc13)C(=O)N1CCC[C@H]1C(=O)N[C@@H](C)C(=O)N[C@@H](CCCNC(=N)N)C(=O)N2 [Peptide 06-34-02] (H-ACRWPARCTHQDLCA-NH2; linker 2-8-14 via TBMB)
IC50 (human plasma Kallikrein): 0.16 nM

SMILES: CC(=O)N[C@H]1CSCc2cc3cc(c2)CSC[C@H](NC(=O)[C@H](CCCNC(=N)N)NC(=O)[C@H](Cc2ccc(O)cc2)NC(=O)[C@@H]2CCCN2C(=O)[C@H](Cc2cccnc2)NC(=O)[C@H](CO)NC1=O)C(=O)N[C@@H](CC(C)C)C(=O)N[C@@H](Cc1c[nH]cn1)C(=O)N[C@@H](CCC(N)=O)C(=O)N[C@@H](CC(=O)O)C(=O)N[C@@H](CC(C)C)C(=O)N[C@H](C(N)=O)CSC3 [Ac-(06-34-18) 3Pal2 Tyr4] (Ac-CS[3Pal]PYRCLHQDLC-NH2; linker 1-7-13 via TBMB)
Ki (human plasma Kallikrein; Ki, text b293, unit inferred): 0.91 nM

SMILES: CC(=O)N[C@H]1CSCc2cc3cc(c2)CSC[C@H](NC(=O)[C@H](CCCNC(=N)N)NC(=O)[C@H](Cc2ccc(O)cc2)NC(=O)[C@@H]2CCCN2C(=O)[C@H](Cc2ccncc2)NC(=O)[C@H](CO)NC1=O)C(=O)N[C@@H](CC(C)C)C(=O)N[C@@H](Cc1c[nH]cn1)C(=O)N[C@@H](CCC(N)=O)C(=O)N[C@@H](CC(=O)O)C(=O)N[C@@H](CC(C)C)C(=O)N[C@H](C(N)=O)CSC3 [Ac-(06-34-18) 4Pal2 Tyr4] (Ac-CS[4Pal]PYRCLHQDLC-NH2; linker 1-7-13 via TBMB)
Ki (human plasma Kallikrein; [2]): 3.56 nM

SMILES: CC(=O)N[C@H]1CSCc2cc3cc(c2)CSC[C@H](NC(=O)[C@H](CCCNC(=N)N)NC(=O)[C@H](Cc2ccncc2)NC(=O)[C@@H]2CCCN2C(=O)[C@H](Cc2ccccc2)NC(=O)[C@H](CO)NC1=O)C(=O)N[C@@H](CC(C)C)C(=O)N[C@@H](Cc1c[nH]cn1)C(=O)N[C@@H](CCC(N)=O)C(=O)N[C@@H](CC(=O)O)C(=O)N[C@@H](CC(C)C)C(=O)N[C@H](C(N)=O)CSC3 [Ac-(06-34-18) Phe2 4Pal4] (Ac-CSFP[4Pal]RCLHQDLC-NH2; linker 1-7-13 via TBMB)
Ki (human plasma Kallikrein; [2]): 2.2 nM

SMILES: CC(=O)N[C@H]1CSCc2cc3cc(c2)CSC[C@H](NC(=O)[C@H](CCCNC(=N)N)NC(=O)[C@H](C)NC(=O)[C@@H]2CCCN2C(=O)[C@H](Cc2ccc(-c4ccccc4)cc2)NC(=O)[C@H](CO)NC1=O)C(=O)N[C@@H](CC(C)C)C(=O)N[C@@H](Cc1c[nH]cn1)C(=O)N[C@@H](CCC(N)=O)C(=O)N[C@@H](CC(=O)O)C(=O)N[C@@H](CC(C)C)C(=O)N[C@H](C(N)=O)CSC3 [Ac-(06-34-18) 4,4,BPal2] (Ac-CS[Bip]PARCLHQDLC-NH2; linker 1-7-13 via TBMB)
Observable in rat plasma, for days [1]: 2 days

Results, then the molecule that gave them:

loss in potency / reduction in affinity compared to wildtype (human plasma Kallikrein): 7000 fold
SMILES: CC(=O)N[C@H]1CSCc2cc3cc(c2)CSC[C@H](NC(=O)[C@H](CCCNC(=N)N)NC(=O)[C@@H](C)NC(=O)[C@@H]2CCCN2C(=O)[C@H](Cc2c[nH]c4ccccc24)NC(=O)[C@H](CO)NC1=O)C(=O)N[C@@H](CC(C)C)C(=O)N[C@@H](Cc1c[nH]cn1)C(=O)N[C@@H](CCC(N)=O)C(=O)N[C@@H](CC(=O)O)C(=O)N[C@@H](CC(C)C)C(=O)N[C@H](C(N)=O)CSC3 [Ac-(06-34-18) D-Ala4]

Observable in rat plasma, for days [1]: 2 days
SMILES: CC(=O)N[C@H]1CSCc2cc3cc(c2)CSC[C@H](NC(=O)[C@H](CCCNC(=N)N)NC(=O)[C@H](C)NC(=O)[C@@H]2CCCCN2C(=O)[C@H](Cc2c[nH]c4ccccc24)NC(=O)[C@H](CO)NC1=O)C(=O)N[C@@H](CC(C)C)C(=O)N[C@@H](Cc1c[nH]cn1)C(=O)N[C@@H](CCC(N)=O)C(=O)N[C@@H](CC(=O)O)C(=O)N[C@@H](CC(C)C)C(=O)N[C@H](C(N)=O)CSC3 [Ac-(06-34-18) Pip3] (Ac-CSW[Pip]ARCLHQDLC-NH2; linker 1-7-13 via TBMB)

Observable in rat plasma, for days [1]: 2 days
SMILES: CC(=O)N[C@H]1CSCc2cc3cc(c2)CSC[C@H](NC(=O)[C@H](CCCNC(=N)N)NC(=O)[C@H](CO)NC(=O)[C@@H]2CCCN2C(=O)[C@H](Cc2c[nH]c4ccccc24)NC(=O)[C@H](CO)NC1=O)C(=O)N[C@@H](CC(C)C)C(=O)N[C@@H](Cc1c[nH]cn1)C(=O)N[C@@H](CCC(N)=O)C(=O)N[C@@H](CC(=O)O)C(=O)N[C@@H](CC(C)C)C(=O)N[C@H](C(N)=O)CSC3 [Ac-(06-34-18) WPSR] (Ac-CSWPSRCLHQDLC-NH2; linker 1-7-13 via TBMB)

Observable in rat plasma, for days [1]: 2 days
SMILES: CC(=O)N[C@H]1CSCc2cc3cc(c2)CSC[C@H](NC(=O)[C@H](CCCNC(=N)N)NC(=O)[C@H](C)NC(=O)[C@@H]2CCCN2C(=O)[C@@H]2Cc4c([nH]c5ccccc45)CN2C(=O)[C@H](CO)NC1=O)C(=O)N[C@@H](CC(C)C)C(=O)N[C@@H](Cc1c[nH]cn1)C(=O)N[C@@H](CCC(N)=O)C(=O)N[C@@H](CC(=O)O)C(=O)N[C@@H](CC(C)C)C(=O)N[C@H](C(N)=O)CSC3 [Ac-(06-34-18) NorHar2] (Ac-CS[Tpi]PARCLHQDLC-NH2; linker 1-7-13 via TBMB)

Observable in rat plasma, for days [1]: >10 days
SMILES: CC(=O)N[C@H]1CSCc2cc3cc(c2)CSC[C@H](NC(=O)[C@H](CCCNC(=N)N)N(C)C(=O)[C@H](C)NC(=O)[C@@H]2CCN2C(=O)[C@H](Cc2c[nH]c4ccccc24)NC(=O)[C@H](CO)NC1=O)C(=O)N[C@@H](CC(C)C)C(=O)N[C@@H](Cc1c[nH]cn1)C(=O)N[C@@H](CCC(N)=O)C(=O)N[C@@H](CC(=O)O)C(=O)N[C@@H](CC(C)C)C(=O)N[C@H](C(N)=O)CSC3 [Ac-(06-34-18) Aze3 NMeArg5] (Ac-CSW[Aze]A[NMeR]CLHQDLC-NH2; linker 1-7-13 via TBMB)

Observable in rat plasma, for days [1]: >10 days
SMILES: CC(=O)N[C@H]1CSCc2cc3cc(c2)CSC[C@H](NC(=O)[C@H](CCCCNC(=N)N)NC(=O)[C@H](C)NC(=O)[C@@H]2CCN2C(=O)[C@H](Cc2c[nH]c4ccccc24)NC(=O)[C@H](CO)NC1=O)C(=O)N[C@@H](CC(C)C)C(=O)N[C@@H](Cc1c[nH]cn1)C(=O)N[C@@H](CCC(N)=O)C(=O)N[C@@H](CC(=O)O)C(=O)N[C@@H](CC(C)C)C(=O)N[C@H](C(N)=O)CSC3 [Ac-(06-34-18) Aze3 HomoArg5] (Ac-CSW[Aze]A[hArg]CLHQDLC-NH2; linker 1-7-13 via TBMB)
